Results reported in patent US10633407B2, “14-membered ketolides and methods of their preparation and use” (President and Fellows of Harvard College, priority 2014, dated 2020).
Converted amounts (≈) assume the structure as drawn.

Tests used:
Assay in all cases: CLSI broth dilution MIC determination
Format in all cases: cell-based
[1] = tested on: K. pneumoniae ATCC 10031; conditions: K. pneumoniae ATCC 10031; Gram-negative
[2] = tested on: S. pyogenes ATCC 19615; conditions: S. pyogenes ATCC 19615; Gram-positive
[3] = tested on: H. influenzae Erythro >4, Azithro 1; conditions: H. influenzae Erythro >4, Azithro 1; Gram-negative
Description: MIC data was collected for the novel macrolides that this platform has produced against over 21 unique strains of B. subtilis, E. coli, S. aureus, S. pneumoniae, and H. influenzae, including several multidrug-resistant strains, with a special focus on macrolide resistant mechanisms (vide supra). […] CLSI standard procedures for broth dilution MIC determination were used. […] These genotypes can be constitutive or inducible.

[4] = tested on: K. pneumoniae SHV-12; conditions: Gram-negative
[5] = tested on: K. pneumoniae KPC-2; conditions: Gram-negative
[6] = tested on: E. faecalis ATCC 29212; conditions: E. faecalis ATCC 29212; Gram-positive
[7] = tested on: A. baumannii chromosomal class C; conditions: Gram-negative
[8] = tested on: E. faecalis Vancomycin-resistant; conditions: E. faecalis Vancomycin-resistant; Gram-positive
[9] = tested on: A. baumannii imipenem-resistant; conditions: Gram-negative
[10] = tested on: P. aeruginosa ATCC 27853; conditions: P. aeruginosa ATCC 27853; Gram-negative
[11] = tested on: A. baumannii ATCC 19606; conditions: A. baumannii ATCC 19606; Gram-negative
[12] = tested on: P. aeruginosa HPA101-1477; conditions: Gram-negative
[13] = tested on: S. pyogenes Macrolide-resistant; conditions: S. pyogenes Macrolide-resistant; Gram-positive
[14] = tested on: S. aureus ATCC 29213; conditions: S. aureus ATCC 29213; Gram-positive
Method in brief: (§1)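 Method: CLSI broth dilution; endpoint: MIC. Macrolide controls azithromycin and solithromycin added in many cases.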

[15] = tested on: E. coli CTX-M-14; conditions: Gram-negative
Method in brief: as §1

[16] = tested on: K. pneumoniae TEM-10; conditions: Gram-negative
[17] = tested on: E. coli ATCC 25922; conditions: E. coli ATCC 25922; Gram-negative
Method in brief: as §1

[18] = tested on: E. coli NDM-1; conditions: Gram-negative
Method in brief: as §1

[19] = tested on: S. pneumoniae mef A genotype (second strain so labelled); conditions: Gram-positive
Method in brief: as §1

[20] = tested on: S. aureus USA600, GISA; conditions: S. aureus USA600, GISA; Gram-positive
Method in brief: as §1

[21] = tested on: S. aureus erm A genotype; conditions: S. aureus erm A genotype; Gram-positive
Method in brief: as §1

[22] = tested on: S. aureus MRSA: USA300; conditions: S. aureus MRSA: USA300; Gram-positive
Method in brief: as §1

[23] = tested on: H. influenzae ATCC49247; conditions: Gram-negative
Method in brief: as §1

[24] = tested on: S. aureus MRSA: USA100; conditions: S. aureus MRSA: USA100; Gram-positive
Method in brief: as §1

[25] = tested on: E. coli TEM-1; conditions: E. coli TEM-1; Gram-negative
Method in brief: as §1

[26] = tested on: S. pneumoniae ATCC 49619; conditions: S. pneumoniae ATCC 49619; Gram-positive
Method in brief: as §1

[27] = tested on: S. pneumoniae erm B + mef A genotype; conditions: S. pneumoniae erm B + mef A genotype; Gram-positive
Method in brief: as §1

[28] = tested on: A. baumannii IMP-4; conditions: Gram-negative

SMILES	MIC [1]	MIC [2]	MIC [3]	MIC [4]	MIC [5]	MIC [6]	MIC [7]	MIC [8]	MIC [9]	MIC [10]	MIC [11]	MIC [12]	MIC [13]	MIC [14]	MIC [15]	MIC [16]	MIC [17]	MIC [18]	MIC [19]	MIC [20]	also measured
CC[C@H]1OC(=O)[C@H](C)C(=O)[C@H](C)[C@@H](O[C@@H]2OC(C)CC(N(C)C)C2O)[C@](C)(OC)C[C@@H](C)C(=O)[C@H](C)[C@H]2N(C/C=C/Cn3nnc(-c4ccccn4)n3)C(=O)O[C@]12C (some centres unmarked) [FSM-100371]	8 µg/mL (≈ 9.85 µM)	< 0.0312 µg/mL	2 µg/mL (≈ 2.46 µM)	> 32 µg/mL	> 32 µg/mL	< 0.0312 µg/mL	32 µg/mL (≈ 39.4 µM)	> 32 µg/mL	> 32 µg/mL	> 32 µg/mL	16 µg/mL (≈ 19.7 µM)	> 32 µg/mL	0.0625 µg/mL (≈ 0.077 µM)	< 0.0312 µg/mL	> 32 µg/mL	> 32 µg/mL	> 32 µg/mL	> 32 µg/mL	0.125 µg/mL (≈ 0.154 µM)	> 32 µg/mL	MIC [21]: > 32 µg/mL; MIC [22]: 4 µg/mL (≈ 4.93 µM); MIC [23]: 2 µg/mL (≈ 2.46 µM); MIC [24]: > 32 µg/mL; MIC [25]: > 32 µg/mL; MIC [26]: < 0.0312 µg/mL; MIC [27]: 0.25 µg/mL; MIC [28]: > 32 µg/mL
CC[C@H]1OC(=O)[C@H](C)C(=O)[C@H](C)[C@@H](O[C@@H]2OC(C)CC(N(C)C)C2O)[C@](C)(OC)C[C@@H](C)C(=O)[C@H](C)[C@H]2N(C/C=C/Cn3nnnc3-c3ccccn3)C(=O)O[C@]12C (some centres unmarked) [FSM-100376]	8 µg/mL (≈ 9.85 µM)	< 0.0312 µg/mL	1 µg/mL (≈ 1.23 µM)	> 32 µg/mL	> 32 µg/mL	< 0.0312 µg/mL	16 µg/mL (≈ 19.7 µM)	> 32 µg/mL	32 µg/mL (≈ 39.4 µM)	32 µg/mL (≈ 39.4 µM)	16 µg/mL (≈ 19.7 µM)	> 32 µg/mL	< 0.0312 µg/mL	< 0.0312 µg/mL	> 32 µg/mL	32 µg/mL (≈ 39.4 µM)	8 µg/mL (≈ 9.85 µM)	> 32 µg/mL	< 0.0312 µg/mL	> 32 µg/mL	MIC [21]: > 32 µg/mL; MIC [22]: 8 µg/mL (≈ 9.85 µM); MIC [23]: 1 µg/mL (≈ 1.23 µM); MIC [24]: > 32 µg/mL; MIC [25]: 16 µg/mL (≈ 19.7 µM); MIC [26]: < 0.0312 µg/mL; MIC [27]: 0.25 µg/mL; MIC [28]: > 32 µg/mL
CC[C@H]1OC(=O)[C@@](C)(F)C(=O)[C@H](C)[C@@H](O[C@@H]2OC(C)CC(N(C)C)C2O)[C@](C)(OC)C[C@@H](C)C(=O)[C@H](C)[C@H]2N(C/C=C/Cn3nnnc3-c3ccccn3)C(=O)O[C@]12C (some centres unmarked) [FSM-100386]	8 µg/mL (≈ 9.64 µM)	< 0.0312 µg/mL	2 µg/mL (≈ 2.41 µM)	> 32 µg/mL	> 32 µg/mL	< 0.0312 µg/mL	32 µg/mL (≈ 38.6 µM)	> 32 µg/mL	> 32 µg/mL	> 32 µg/mL	32 µg/mL (≈ 38.6 µM)	> 32 µg/mL	0.0625 µg/mL (≈ 0.0753 µM)	< 0.0312 µg/mL	> 32 µg/mL	> 32 µg/mL	16 µg/mL (≈ 19.3 µM)	> 32 µg/mL	0.0625 µg/mL (≈ 0.0753 µM)	> 32 µg/mL	MIC [21]: > 32 µg/mL; MIC [22]: 4 µg/mL (≈ 4.82 µM); MIC [23]: 4 µg/mL (≈ 4.82 µM); MIC [24]: > 32 µg/mL; MIC [25]: 16 µg/mL (≈ 19.3 µM); MIC [26]: < 0.0312 µg/mL; MIC [27]: 0.25 µg/mL; MIC [28]: > 32 µg/mL
CC[C@H]1OC(=O)[C@@](C)(F)C(=O)[C@H](C)[C@@H](O[C@@H]2OC(C)CC(N(C)C)C2O)[C@](C)(OC)C[C@@H](C)C(=O)[C@H](C)[C@H]2N(C/C=C/Cn3nnc(-c4ccccn4)n3)C(=O)O[C@]12C (some centres unmarked) [FSM-100389]	4 µg/mL (≈ 4.82 µM)	< 0.0312 µg/mL	1 µg/mL (≈ 1.2 µM)	> 32 µg/mL	> 32 µg/mL	< 0.0312 µg/mL	32 µg/mL (≈ 38.6 µM)	> 32 µg/mL	16 µg/mL (≈ 19.3 µM)	> 32 µg/mL	16 µg/mL (≈ 19.3 µM)	> 32 µg/mL	< 0.0312 µg/mL	< 0.0312 µg/mL	> 32 µg/mL	> 32 µg/mL	32 µg/mL (≈ 38.6 µM)	> 32 µg/mL	< 0.0312 µg/mL	> 32 µg/mL	MIC [21]: > 32 µg/mL; MIC [22]: 2 µg/mL (≈ 2.41 µM); MIC [23]: 1 µg/mL (≈ 1.2 µM); MIC [24]: > 32 µg/mL; MIC [25]: 32 µg/mL (≈ 38.6 µM); MIC [26]: < 0.0312 µg/mL; MIC [27]: 0.0625 µg/mL; MIC [28]: > 32 µg/mL
CC[C@H]1OC(=O)[C@H](C)C(=O)[C@H](C)[C@@H](O[C@@H]2OC(C)CC(N(C)C)C2O)[C@](C)(OC)C[C@@H](C)C(=O)[C@H](C)[C@H]2N(C/C=C\Cn3cc(-c4cccc(N)c4)nn3)C(=O)O[C@]12C (some centres unmarked) [FSM-100423]	16 µg/mL (≈ 19.4 µM)	< 0.0312 µg/mL	4 µg/mL (≈ 4.85 µM)	> 32 µg/mL	> 32 µg/mL	< 0.0312 µg/mL	32 µg/mL (≈ 38.8 µM)	> 32 µg/mL	32 µg/mL (≈ 38.8 µM)	> 32 µg/mL	32 µg/mL (≈ 38.8 µM)	> 32 µg/mL	< 0.0312 µg/mL	0.125 µg/mL (≈ 0.152 µM)	> 32 µg/mL	> 32 µg/mL	> 32 µg/mL	> 32 µg/mL	< 0.0312 µg/mL	> 32 µg/mL	MIC [21]: > 32 µg/mL; MIC [22]: > 32 µg/mL; MIC [23]: 2 µg/mL (≈ 2.42 µM); MIC [24]: > 32 µg/mL; MIC [25]: > 32 µg/mL; MIC [26]: < 0.0312 µg/mL; MIC [27]: 0.0625 µg/mL; MIC [28]: > 32 µg/mL
